Data taken from ChEMBL document CHEMBL1201862, “PubChem BioAssay data set” (2004).
Activity calls are given as the source filed them.

Tests used:
Leucine aminopeptidase = target: T1, Leucine aminopeptidase (Plasmodium falciparum 3D7, UniProt Q8IL11); assay: P. falciparum M17LAP inhibitors, primary screen, biochemical, fluorogenic H-Leu-NHMec substrate, 1536-well (AID 1619); format: functional
T1 sequence (Q8IL11 whole entry): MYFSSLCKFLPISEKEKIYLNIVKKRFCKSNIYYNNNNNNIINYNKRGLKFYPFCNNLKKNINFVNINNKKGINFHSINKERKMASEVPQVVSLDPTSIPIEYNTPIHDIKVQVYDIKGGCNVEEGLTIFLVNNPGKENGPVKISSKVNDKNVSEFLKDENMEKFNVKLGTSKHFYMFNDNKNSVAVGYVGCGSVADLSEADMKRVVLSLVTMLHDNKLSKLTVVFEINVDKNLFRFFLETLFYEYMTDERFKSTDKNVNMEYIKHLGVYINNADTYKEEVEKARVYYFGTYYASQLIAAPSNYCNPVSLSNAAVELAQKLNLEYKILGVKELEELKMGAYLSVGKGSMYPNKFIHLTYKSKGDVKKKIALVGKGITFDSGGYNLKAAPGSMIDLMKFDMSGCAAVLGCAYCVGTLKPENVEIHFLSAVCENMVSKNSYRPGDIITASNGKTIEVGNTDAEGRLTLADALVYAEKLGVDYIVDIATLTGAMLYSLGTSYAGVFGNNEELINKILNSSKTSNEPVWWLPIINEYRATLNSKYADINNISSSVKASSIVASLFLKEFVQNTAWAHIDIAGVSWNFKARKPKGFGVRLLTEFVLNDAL

Aspartyl aminopeptidase = target: T2, Aspartyl aminopeptidase (Plasmodium falciparum 3D7, UniProt Q8I2J3); assay: Counterscreen for inhibitors of M1 and M17 aminopeptidases: QFRET-based biochemical high throughput dose response assay for inhibitors of the Plasmodium falciparum M18 Aspartyl Aminopeptidase (PFM18AAP). [Related PubChem assays: 1619 (Screening assay (M17LAP inhibitors).), 1445 (Screening assay (M1AAP inhibitors).)]
T2 sequence (Q8I2J3 whole entry): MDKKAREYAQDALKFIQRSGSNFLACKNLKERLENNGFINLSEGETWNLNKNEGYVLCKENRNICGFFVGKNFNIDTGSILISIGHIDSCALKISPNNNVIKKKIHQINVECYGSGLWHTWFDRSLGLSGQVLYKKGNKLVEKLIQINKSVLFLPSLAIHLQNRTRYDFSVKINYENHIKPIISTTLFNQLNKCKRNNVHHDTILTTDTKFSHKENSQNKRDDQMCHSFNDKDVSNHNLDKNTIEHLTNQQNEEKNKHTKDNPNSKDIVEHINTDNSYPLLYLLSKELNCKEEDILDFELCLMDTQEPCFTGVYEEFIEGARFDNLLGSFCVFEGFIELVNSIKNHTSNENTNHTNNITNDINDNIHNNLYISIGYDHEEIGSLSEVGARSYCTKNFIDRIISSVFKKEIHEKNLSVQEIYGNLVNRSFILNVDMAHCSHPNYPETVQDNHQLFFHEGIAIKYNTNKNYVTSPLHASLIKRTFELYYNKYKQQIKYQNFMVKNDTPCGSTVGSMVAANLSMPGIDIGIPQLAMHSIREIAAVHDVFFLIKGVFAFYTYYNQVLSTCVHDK

Procathepsin L = Procathepsin L (Homo sapiens, UniProt P07711); assay: cathepsin L inhibitors, dose response, counter-screen for M1/M17 aminopeptidase inhibitor project, biochemical, QFRET, 1536-well (AID 2214)
[1] = test system: Streptococcus sp. 'group A'; assay: growth inhibition of control SK(-) GAS strain, dose response, counter-screen for streptokinase expression inhibitor project, luminescence, kanamycin, BacTiterGlo, confirmation (AID 1900); format: functional, organism-based
Streptokinase A = target: T3, Streptokinase A (Streptococcus pyogenes serotype M1, UniProt P10520); assay: S. pyogenes streptokinase expression inhibitors, potency, dose response, plasminogen activation absorbance, OD405 (AID 1914); format: functional, Streptococcus pyogenes M1 GAS;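 further: secreted streptokinase activity via plasminogen activation per viability signal from cell pellet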
T3 sequence (P10520 whole entry): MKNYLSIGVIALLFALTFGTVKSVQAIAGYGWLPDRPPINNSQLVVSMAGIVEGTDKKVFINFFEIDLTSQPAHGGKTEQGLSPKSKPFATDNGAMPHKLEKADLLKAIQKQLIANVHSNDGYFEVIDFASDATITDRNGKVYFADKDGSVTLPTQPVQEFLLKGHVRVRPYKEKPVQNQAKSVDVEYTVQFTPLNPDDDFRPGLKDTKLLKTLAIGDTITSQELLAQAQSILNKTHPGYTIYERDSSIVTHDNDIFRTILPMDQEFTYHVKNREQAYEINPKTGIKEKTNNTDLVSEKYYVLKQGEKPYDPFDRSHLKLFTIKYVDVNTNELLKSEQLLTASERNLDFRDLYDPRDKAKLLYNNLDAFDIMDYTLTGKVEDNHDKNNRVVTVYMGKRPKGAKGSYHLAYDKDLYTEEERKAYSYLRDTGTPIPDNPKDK

[2] = inhibitors of intracellular T. cruzi replication, confirmation, NIH3T3 host cells, beta-gal luminescence (AID 2044); format: functional, cell-based;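 further: intracellular parasites grown in NIH/3T3 mouse fibroblasts as host cells; luminescent beta-galactosidase reporter signal from transgenic T. cruzi replicating inside host cells; inhibitors lower the luminescence signal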
[3] = growth suppression of PTEN-null colon cells, dose response, cell-based, HCT116 PTEN knockout (AID 1047); format: functional;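 further: HCT116 colon tumor cells with PTEN knocked out; cells exposed to compound for 60 hours before readout; potency for loss of cell viability measured by luminescence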
[4] = cytotoxicity toward NIH3T3 fibroblasts, dose response, counter-screen, cell-based, ATP luminescence, mouse fibroblasts (AID 2010); format: functional;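 further: cells exposed to compound for about 90 hours before reading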
[5] = growth suppression of beta-catenin-knockout colon cells, dose response, cell-based, HCT116, human colon tumor (AID 1045); format: functional;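 further: HCT116 colon tumor cells with beta catenin knocked out; cells exposed to compound for 60 hours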
Streptococcus = assay: Group A Streptococcus viability loss, dose response, counter-screen for streptokinase expression inhibitor project, luminescence, BacTiterGlo (AID 1915); format: functional, organism-based;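 further: potency for reduction of bacterial viability or growth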
[6] = target: T4, Mannose-6-phosphate isomerase (Homo sapiens, UniProt P34949); assay: human PMI inhibitors, high substrate, primary screen, biochemical, fluorescence intensity, high mannose 6-phosphate (AID 1220)
T4 sequence (P34949 whole entry): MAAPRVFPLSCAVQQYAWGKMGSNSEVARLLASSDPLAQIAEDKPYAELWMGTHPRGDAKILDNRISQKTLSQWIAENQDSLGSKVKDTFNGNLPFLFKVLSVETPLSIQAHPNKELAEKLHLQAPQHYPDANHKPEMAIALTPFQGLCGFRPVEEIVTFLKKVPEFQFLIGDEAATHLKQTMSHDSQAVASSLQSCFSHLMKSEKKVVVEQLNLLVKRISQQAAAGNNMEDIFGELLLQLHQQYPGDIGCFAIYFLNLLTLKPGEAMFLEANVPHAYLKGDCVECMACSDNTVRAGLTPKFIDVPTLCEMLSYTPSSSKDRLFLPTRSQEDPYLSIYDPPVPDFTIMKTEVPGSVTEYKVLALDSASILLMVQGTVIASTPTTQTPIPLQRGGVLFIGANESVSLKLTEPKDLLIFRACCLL

[7] = target: T5, Replicative DNA helicase DnaB (Mycobacterium tuberculosis, UniProt P9WMR3); assay: DnaB intein splicing inhibitors, dose response, biochemical, cell-free fluorescence (AID 449749); format: functional
T5 sequence (P9WMR3 whole entry): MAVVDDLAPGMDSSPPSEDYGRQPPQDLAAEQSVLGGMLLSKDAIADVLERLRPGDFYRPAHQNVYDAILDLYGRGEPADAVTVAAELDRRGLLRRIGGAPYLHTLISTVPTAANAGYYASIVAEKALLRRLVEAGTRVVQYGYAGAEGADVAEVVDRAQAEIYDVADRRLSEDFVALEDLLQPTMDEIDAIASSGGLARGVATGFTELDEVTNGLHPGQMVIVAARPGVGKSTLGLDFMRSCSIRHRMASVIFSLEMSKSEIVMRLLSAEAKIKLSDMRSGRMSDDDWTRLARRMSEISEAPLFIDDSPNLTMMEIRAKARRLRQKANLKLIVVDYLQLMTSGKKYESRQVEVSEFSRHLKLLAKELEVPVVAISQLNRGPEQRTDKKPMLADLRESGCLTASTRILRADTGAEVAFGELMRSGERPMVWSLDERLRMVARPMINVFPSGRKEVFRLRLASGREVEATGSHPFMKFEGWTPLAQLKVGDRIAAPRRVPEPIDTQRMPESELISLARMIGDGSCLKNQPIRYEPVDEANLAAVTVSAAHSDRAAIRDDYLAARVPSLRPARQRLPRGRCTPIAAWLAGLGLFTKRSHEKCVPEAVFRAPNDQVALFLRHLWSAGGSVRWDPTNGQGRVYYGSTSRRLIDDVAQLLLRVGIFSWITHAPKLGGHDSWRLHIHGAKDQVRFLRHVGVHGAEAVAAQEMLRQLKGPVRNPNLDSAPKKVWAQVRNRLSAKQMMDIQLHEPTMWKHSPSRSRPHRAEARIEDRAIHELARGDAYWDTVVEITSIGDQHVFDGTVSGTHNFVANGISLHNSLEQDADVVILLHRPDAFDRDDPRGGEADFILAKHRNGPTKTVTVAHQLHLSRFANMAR

[8] = target: Heat shock protein HSP 90-alpha (Homo sapiens, UniProt P07900); format: functional, organism-based
Vero = Vero cell cytotoxicity, cytotoxicity control for flavivirus capping enzyme inhibitors (AID 588742); format: functional; settings: Chlorocebus sabaeus
Protein RecA = target: T6, Protein RecA (Mycobacterium tuberculosis, UniProt P9WHJ3); assay: Fluorescence Cell-Free Homogeneous Dose Retest to Identify Inhibitors of RecA-Intein Splicing Activity. [Related pubchem assays (depositor defined):AID2097, AID2223, AID489010, AID492950]; format: functional
T6 sequence (P9WHJ3 whole entry): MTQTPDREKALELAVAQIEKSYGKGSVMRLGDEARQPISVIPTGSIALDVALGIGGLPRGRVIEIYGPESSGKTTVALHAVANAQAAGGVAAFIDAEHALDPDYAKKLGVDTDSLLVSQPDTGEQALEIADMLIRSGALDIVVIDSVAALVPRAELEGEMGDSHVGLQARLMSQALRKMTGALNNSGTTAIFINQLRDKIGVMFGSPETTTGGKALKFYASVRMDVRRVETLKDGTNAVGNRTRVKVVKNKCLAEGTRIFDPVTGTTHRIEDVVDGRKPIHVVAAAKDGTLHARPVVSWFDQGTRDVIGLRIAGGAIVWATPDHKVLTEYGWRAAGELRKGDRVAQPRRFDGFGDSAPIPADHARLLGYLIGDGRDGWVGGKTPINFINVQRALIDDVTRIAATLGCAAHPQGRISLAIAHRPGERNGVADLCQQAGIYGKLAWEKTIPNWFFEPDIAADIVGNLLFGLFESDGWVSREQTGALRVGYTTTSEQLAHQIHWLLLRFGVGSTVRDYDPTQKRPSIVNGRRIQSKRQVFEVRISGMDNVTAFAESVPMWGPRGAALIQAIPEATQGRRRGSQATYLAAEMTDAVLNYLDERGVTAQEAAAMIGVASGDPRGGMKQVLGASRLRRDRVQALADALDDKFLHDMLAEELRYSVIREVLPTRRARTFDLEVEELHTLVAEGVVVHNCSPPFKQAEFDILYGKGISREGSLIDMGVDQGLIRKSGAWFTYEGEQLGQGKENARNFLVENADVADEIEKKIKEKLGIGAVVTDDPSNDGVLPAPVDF

INS1 = assay: beta cell apoptosis inhibitors, cytokine rescue, dose response, luminescence, retest (AID 449756); format: functional, cell-based; settings: Rattus norvegicus, INS1;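 further: cell death triggered by IL-1 beta plus TNF-alpha plus IFN-gamma mixture; protective hits raise ATP signal compared with cytokine alone wells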

Chain of Procathepsin L (P07711 whole entry): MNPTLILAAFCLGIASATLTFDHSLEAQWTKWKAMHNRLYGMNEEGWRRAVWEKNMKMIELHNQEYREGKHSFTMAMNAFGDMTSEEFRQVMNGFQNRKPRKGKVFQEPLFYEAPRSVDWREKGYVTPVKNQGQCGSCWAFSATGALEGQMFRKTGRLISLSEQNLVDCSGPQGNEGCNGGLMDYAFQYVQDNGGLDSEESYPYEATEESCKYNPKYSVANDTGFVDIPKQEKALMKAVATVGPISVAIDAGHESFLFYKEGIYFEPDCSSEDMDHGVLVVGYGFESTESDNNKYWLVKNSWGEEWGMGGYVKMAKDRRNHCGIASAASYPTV

Compound: Cc1ccc(Nc2nnc(SC(C)C(=O)Nc3c(C)n(C)n(-c4ccccc4)c3=O)s2)cc1 (stereo unspecified)
- IC50 (Leucine aminopeptidase): 3.86 µM (active)
- IC50 (Aspartyl aminopeptidase): > 73.5 µM (not active)
- IC50 (Procathepsin L): > 59.6 µM (not active)

Compound: CC(=O)C1=C(c2ccc(Br)cc2)C(=O)c2ccccc2C1=O
- EC50 [1]: 1 µM (active)
- EC50 (Streptokinase A): 7.12 µM (active)
- EC50 [2]: 2.01 µM (active)
- EC50 [3]: 1.98 µM (active)
- EC50 [4]: 2.42 µM (active)
- EC50 [5]: 1.81 µM (active)
- EC50 (Streptococcus): 9.4 µM (active)
- IC50 [6]: 3.13 µM (active)
- AC50 [7]: 3.05 µM (active)
- AC50 [8]: 7.99 µM (active)
- CC50 (Vero): 9.68 µM (active)
- EC50 (Protein RecA): 1.94 µM (active)
- AC50 (INS1): 1.06 µM (active)
